Laboratory results taken from PMC6792352, “Limited Chemical Structural Diversity Found to Modulate Thyroid Hormone Receptor in the Tox21 Chemical Library” (Environmental Health Perspectives, 2019).
Where two headings read alike, the source gives them in different places.

Tests used:
[1] = Global cytotoxicity: eighteen Tox21 cell viability assays; format: cell-based
[2] = tested on: Tox21 cell viability assays (different cell types); assay: as above; format: cell-based
in vitro [3] = conditions: rat
[4] = tested on: thyroid hormone receptor (endogenous TRα and TRβ); assay: GH3-TRE-Ag primary qHTS, luciferase reporter, agonist mode (TOX21_TR_LUC_GH3_Agonist, aeid 803); format: cell-based, rat; conditions: for TR_LUC_GH3_Agonist_EMAX (% Control): Table S5; for GH3-TRE-Ag AC50 hitc: hit call from tcpl
in vitro [5] = conditions: rat, gh3-tre-luc cells, AC50 (uM) modified / 1000
[6] = tested on: thyroid hormone receptor (endogenous TRα and TRβ); assay: GH3-TRE-Antag primary qHTS, luciferase reporter, antagonist mode with 1 nM T3 (TOX21_TR_LUC_GH3_Antagonist, aeid 804); format: cell-based, rat
[7] = tested on: thyroid hormone receptor (endogenous TRα and TRβ); assay: GH3-TRE-Ag-Followup confirmation (TOX21_TR_LUC_GH3_Agonist_Followup, aeid 2226); format: cell-based, rat; conditions: for AC50: confirmation, agonist mode, read-out: GH3-TRE-Ag-Followup AC50; for GH3-TRE-Ag-Followup hitc: hit call from tcpl
[8] = tested on: thyroid hormone receptor (TR); assay: Classification of TR actives across characterization assays (TR-Ag / RXR-Ag; TR model binary); conditions: for Categorization Code: TR agonist characterization; for Classification: TR-Ag = TR agonist, RXR-Ag = RXR agonist
Method in brief: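 GH3-TRE qHTS agonist, antagonist and viability modes over 8,305 compounds; 84 candidates rescreened in GH3-TRE-Ag, TRβ- and RXRα-UAS-bla HEK 293T one-hybrid assays, HEK293T viability, and TRα/TRβ coactivator recruitment. Actives classified binary after removing pharmaceuticals.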

GH3-TRE-Luc cell line [9] = conditions: rat, 24 h
[10] = molecular target: T1, TRα ligand-binding domain (Homo sapiens, UniProt P10827); assay: TRa-coa LanthaScreen TR-FRET coactivator (SRC-2 peptide) recruitment, agonist (TOX21_TRA_COA_Agonist_Followup_ratio, aeid 2230); format: biochemical; conditions: for AC50: cell-free coactivator recruitment, read-out: TRa-coa-Ag AC50; for TRa-coa hitc: hit call from tcpl, agonist; for Emax: read-out: EMax (% of Control) tra-coa-agonist-followup-1
T1 construct: the receptor LBDs expressed as glutathione S-transferase (GST) fusion proteins; purchased

[11] = molecular target: T2, human TRβ ligand-binding domain (Homo sapiens, UniProt P10828); assay: TRb-bla agonist mammalian one-hybrid beta-lactamase assay (TOX21_TRB_BLA_Agonist_Followup_ratio, aeid 2236); format: cell-based; design: host or cells: GeneBLAzer UAS-bla HEK 293T; conditions: for AC50: HEK 293T one-hybrid, agonist mode, read-out: TRb-bla-Ag AC50; for TRb-bla hitc: hit call from tcpl, agonist; for Emax: read-out: EMax (% of Control) trb-bla-agonist-followup-1
T2 sequence (P10828 217-461 limits assumed): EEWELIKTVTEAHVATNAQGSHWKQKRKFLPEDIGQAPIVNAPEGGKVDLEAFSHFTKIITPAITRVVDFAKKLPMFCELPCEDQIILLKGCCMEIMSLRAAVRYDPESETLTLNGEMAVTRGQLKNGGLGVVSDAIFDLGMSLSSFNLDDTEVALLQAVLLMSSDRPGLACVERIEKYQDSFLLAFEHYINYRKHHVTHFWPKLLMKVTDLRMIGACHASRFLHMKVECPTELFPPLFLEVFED

[12] = molecular target: T2, human TRβ ligand-binding domain; assay: TRb-coa LanthaScreen TR-FRET coactivator (SRC-2 peptide) recruitment, agonist (TOX21_TRB_COA_Agonist_Followup_ratio, aeid 2244); format: biochemical; design: host or cells: GeneBLAzer UAS-bla HEK 293T; conditions: for AC50: cell-free coactivator recruitment, read-out: TRb-coa-Ag AC50; for TRb-coa hitc: hit call from tcpl, agonist; for Emax: read-out: EMax (% of Control) trb-coa-agonist-followup-1
human RXRα = molecular target: T3, human RXRα (Homo sapiens, UniProt P19793); assay: RXRa-bla-Ag mammalian one-hybrid beta-lactamase assay (TOX21_TR_RXR_BLA_Agonist_Followup_ratio, aeid 2253); format: cell-based; conditions: for AC50: HEK 293T one-hybrid, agonist mode, inactive set to 1,000, read-out: RXRa-bla-Ag AC50; for tr-followup-rxr-bla-agonist-1 hitc: hit call from tcpl; for Emax: read-out: EMax (% of Control) tr-followup-rxr-bla-agonist-1
T3 construct: host or cells: GeneBLAzer UAS-bla HEK 293T
T3 sequence (P19793 227-458 limits assumed): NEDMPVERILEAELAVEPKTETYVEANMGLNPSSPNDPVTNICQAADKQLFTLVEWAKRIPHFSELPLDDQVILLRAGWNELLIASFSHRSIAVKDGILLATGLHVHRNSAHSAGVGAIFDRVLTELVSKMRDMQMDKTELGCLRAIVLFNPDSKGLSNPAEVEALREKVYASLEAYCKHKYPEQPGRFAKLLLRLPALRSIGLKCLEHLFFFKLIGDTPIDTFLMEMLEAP

GH3-TRE-Luc cell line [13] = assay: GH3-TRE-Via cell viability, CellTiter-Fluor (TOX21_TR_LUC_GH3_Antagonist_viability, aeid 805); conditions: hit call from tcpl
[14] = antagonist candidates, inactive samples arbitrarily set to AC50=1,000 μM, read-out: GH3-TRE-Ag AC50
[15] = antagonist mode, 1 nM T3; read-out: GH3-TRE-Antag AC50
[16] = primary qHTS, agonist mode, 24 h, top concentration 92 μM, read-out: GH3-TRE-Ag AC50
[17] = median over 18 Tox21 cell viability assays, inactive set to 1,000, read-out: Global cytotoxicity AC50 median
[18] = percentage of 18 Tox21 viability assays with hitc=1

T1 sequence (P10827 163-410 isoform P10827-2 limits assumed, other chains not shown): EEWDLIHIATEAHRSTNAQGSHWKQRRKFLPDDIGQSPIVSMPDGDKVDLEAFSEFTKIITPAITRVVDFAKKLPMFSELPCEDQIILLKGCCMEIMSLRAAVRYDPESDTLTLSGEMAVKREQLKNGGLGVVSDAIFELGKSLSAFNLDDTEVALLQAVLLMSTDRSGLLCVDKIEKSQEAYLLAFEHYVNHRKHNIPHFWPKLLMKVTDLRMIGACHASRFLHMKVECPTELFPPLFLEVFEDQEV

| SMILES | AC50 [1] | Active in global cytotoxicity assays (%) [2] | AC50 at 24 h (in vitro [3]) | AC50 [4, 14] | AC50 [6, 15] | GLOBAL CYTOTOXICITY cytotox.median [2] | GLOBAL CYTOTOXICITY cytotox.number_Active [2] | EMax (% of Control) gh3-tre-agonist-followup-1_agonist [7] | AC50 [7] | GH3-TRE-Ag-Followup hitc [7] | Categorization Code [8] | Classification [8] | EMax (% of Control) gh3-tre-agonist [4] | GH3-TRE-Ag AC50 hitc [4] | TR_LUC_GH3_Antagonist_viability hitc (GH3-TRE-Luc cell line [9]) | AC50 [10] | TRa-coa hitc [10] | Emax [10] | Emax [11] | Emax [12] | further results |
| --- | --- | --- | --- | --- | --- | --- | --- | --- | --- | --- | --- | --- | --- | --- | --- | --- | --- | --- | --- | --- | --- |
| CC[C@H]1OC(=O)C[C@@H](O)[C@H](C)[C@@H](O[C@@H]2O[C@H](C)C[C@H](N(C)C)[C@H]2O)[C@@H](CC=O)C[C@@H](C)C(=O)/C=C/[C@]2(C)O[C@H]2[C@@H]1C [Rosaramicin] | 26.8 µM | 46.7% | 24.4 µM | > 92 µM | – | – | – | – | – | – | – | – | – | – | – | – | – | – | – | – | CC50 at 24 h (in vitro [5]): 22.9 µM |
| COc1cccc2c1C(=O)c1c(O)c3c(c(O)c1C2=O)C[C@@](O)(C(C)=O)C[C@@H]3O[C@H]1C[C@H](N)[C@H](O)[C@H](C)O1 [Daunorubicin] | 10.5 µM | 66.1% | 1.01 µM | – | – | – | – | – | – | – | – | – | – | – | – | – | – | – | – | – | active rate in Tox21 viability/cytotoxicity assays [2]: two-thirds; AC50 ([6]; read-out: GH3-TRE-Antag AC50; antagonist mode, 1 nM T3): 0.7 µM; AC50 ([4]; read-out: GH3-TRE-Ag AC50): > 92 µM |
| CN(C)c1ccc(/N=N/c2ccccc2C(=O)O)cc1 [Methyl red] | 48.5 µM | 48.5% | 14.6 µM | > 92 µM | 8.79 µM | – | – | – | – | – | – | – | – | – | – | – | – | – | – | – | – |
| N[C@@H](Cc1cc(I)c(Oc2ccc(O)c(I)c2)c(I)c1)C(=O)O [3,5,3ʹ-Triiodothyronine, reference compound] | > 92 µM | – | 41.7 µM | – | – | >92 | 0 | […] | […] | […] | TR-Ag | TR-Ag | […] | […] | […] | – | – | – | – | – | TR_LUC_GH3_Agonist_EMAX (% Control) [4]: […]; AC50 ([4]; Table S5, chemical level, listed as 3,5,3'-Triiodothyronine, read-out: TR_LUC_GH3_Agonist_AC50): […] |
| C=C(c1ccc(C(=O)O)cc1)c1cc2c(cc1C)C(C)(C)CCC2(C)C [Bexarotene, reference compound] | 23.9 µM | – | 10.4 µM | – | – | 23.9 | 15 | 37.1 % of Control | 0.017 µM | 1 | RXR-Ag | RXR-Ag | 26.0 % of Control | 0 | 1 | > 92 µM | 0 | -0.4% | 11.8% | -0.427% | AC50 [11]: > 92 µM; TRb-bla hitc [11]: 0; AC50 [4, 16]: 0.0077 µM; AC50 [12]: > 92 µM; TRb-coa hitc [12]: 0 |
| O=C(O)CCNC(=O)c1ccccc1 [Betamipron, reference compound] | > 92 µM | – | > 92 µM | – | – | >92 | 0 | 90.7 % of Control | 1.68 µM | 1 | TR-Ag | TR-Ag | 72.8 % of Control | 1 | 0 | 10.4 µM | 1 | 120% | 85.5% | 30.8% | AC50 [11]: 14 µM; TRb-bla hitc [11]: 1; activity in GH3-TRE agonist assay [4]: concentration-dependent activity; AC50 [4, 16]: 11.8 µM; AC50 [12]: 11.8 µM; TRb-coa hitc [12]: 1; activity in RXRα-bla-Ag assay (human RXRα): lack of activity; AC50 (human RXRα): > 92 µM; tr-followup-rxr-bla-agonist-1 hitc (human RXRα): 0; Emax (human RXRα): 2.9% |
| c1cc(N(CC2CO2)CC2CO2)ccc1Cc1ccc(N(CC2CO2)CC2CO2)cc1 (stereo not shown) [4,4ʹ-Methylenebis(N,N-diglycidylaniline)] | – | – | – | > 92 µM | 8.03 µM | – | – | – | – | – | – | – | – | – | – | – | – | – | – | – | AC50 [1, 17]: 45.3 µM; Active in global cytotoxicity assays (%) [2, 18]: 59.1%; AC50 (in vitro [3]): 11.1 µM |
| CCCCCCCCCCCCn1cc[n+](C)c1.[I-] [1-Dodecyl-3-methylimidazolium iodide] | – | – | – | > 92 µM | 1.33 µM | – | – | – | – | – | – | – | – | – | – | – | – | – | – | – | AC50 [1, 17]: 41.1 µM; Active in global cytotoxicity assays (%) [2, 18]: 74.2%; AC50 (in vitro [3]): 5.1 µM |
| O=C(O)Cc1cc(I)c(Oc2ccc(O)c(I)c2)c(I)c1 [Tiratricol, reference compound] | 27 µM | – | > 92 µM | – | – | – | 4 | 105.1 % of Control | 0.0002 µM | 1 | TR-Ag | TR-Ag | – | 1 | 0 | – | – | – | – | – | GLOBAL CYTOTOXICITY cytotox.median ([2]; median over Tox21 viability assays): 27.0; TR_LUC_GH3_Agonist_EMAX (% Control) [4]: 104.7 % Control |
| COc1cc(C)c(/C=C/C(C)=C/C=C/C(C)=C/C(=O)O)c(C)c1C [Acitretin, reference compound] | – | – | > 92 µM | – | – | >92 | 0 | 79.4 % of Control | 0.94 µM | 1 | RXR-Ag | RXR-Ag | 24.4 % of Control | 1 | – | > 92 µM | 0 | 3.4% | 4.1% | 4.8% | AC50 ([1]; median over 18 Tox21 cell viability assays (Judson et al. 2016, invitrodb_v2), read-out: Global cytotoxicity AC50 median): > 92 µM; TR_LUC_GH3_Antagonist_viability hitc (GH3-TRE-Luc cell line [13]): 0; AC50 (human RXRα): 0.564 µM; tr-followup-rxr-bla-agonist-1 hitc (human RXRα): 1; Emax (human RXRα): 105% |
